Like-named read-outs stand apart in the source and are kept apart here.
What was measured:
[1] = molecular target: T1, Human Serum Albumin (HSA) (Homo sapiens, UniProt P02768); assay: Human serum albumin (HSA) binding by high performance affinity chromatography (HPAC); assay type: in vitro ADME; conditions: Chiralpak HSA column
T1 construct: purchased Daicel H13H-2433
Protocol: Determination of Human Serum Albumin (HSA) Binding by High Performance Affinity Chromatography (HPAC)
HSA binding of the PSMA-addressing ligands was determined according to a previously published procedure via HPLC (Valko, K.; Nunhuck, S.; Bevan, C.; Abraham, M. H.; Reynolds, D. P. Journal of pharmaceutical sciences 2003, 92, 2236-2248). A Chiralpak HSA column (50×3 mm, 5 μm, H13H-2433, Daicel, Tokyo, Japan) was used at a constant flow rate of 0.5 mL/min at rt. Mobile phase A was a freshly prepared 50 mM aqueous solution of NH4OAc (pH 6.9) and mobile phase B was isopropanol (HPLC grade, VWR). The applied gradient for all experiments was 100% A (0 to 3 min), followed by 80% A (3 to 40 min). Prior to the experiment, the column was calibrated using nine reference substances with a HSA binding, known from literature, in the range of 13 to 99% (Valko, K.; Nunhuck, S.; Bevan, C.; Abraham, M. H.; Reynolds, D. P. Journal of pharmaceutical sciences 2003, 92, 2236-2248; Yamazaki, K.; Kanaoka, M. Journal of Pharmaceutical sciences 2004, 93, 1480-1494). All substances, including the examined PSMA ligands, were dissolved in a 1:1 mixture (v/v) of isopropanol and a 50 mM aqueous solution of NH4OAc (pH6.9) with a final concentration of 0.5 mg/mL. Non-linear regression was established with the OriginPro 2016G software (Northampton, United States) (FIG. 8).

[2] = test system: LNCaP cells; assay: Internalization studies in LNCaP cells; assay type: cell-based; conditions: 37° C., 60 min
Protocol: PSMA-positive LNCAP cells (300265; Cell Lines Service, Eppelheim, Germany) were cultivated in Dulbecco modified Eagle medium/Nutrition Mixture F-12 with Glutamax (1:1) (DMEM-F12, Biochrom, Berlin, Germany) supplemented with fetal bovine serum (10%, FBS Zellkultur, Berlin, Germany) and kept at 37° C. in a humidified CO2 atmosphere (5%). A mixture of trypsin and EDTA (0.05%, 0.02%) in PBS (Biochrom) was used in order to harvest cells. Cells were counted with a Neubauer hemocytometer (Paul Marienfeld, Lauda-Königshofen, Germany).
For internalization studies, LNCaP cells were harvested 24±2 hours before the experiment and seeded in poly-L-lysine coated 24-well plates (1.25×10^5 cells in 1 mL/well, Greiner Bio-One, Kremsmünster, Austria). After removal of the culture medium, the cells were washed once with 500 μL DMEM-F12 (5% BSA) and left to equilibrate for at least 15 min at 37° C. in […] DMEM-F12 (5% BSA). Each well was treated with either 25 μL of either DMEM-F12 (5% BSA, control) or 25 μL of a 100 μM PMPA (2-(Phosphonomethyl)-pentandioic acid, Tocris Bioscience, Bristol, UK) solution in PBS, for blockade. Next, 25 μL of the radioactive-labelled PSMA inhibitor (10.0 nM in DMEM-F12 (5% BSA)) was added and the cells were incubated at 37° C. for 60 min. The experiment was terminated by placing the 24-well plate on ice for 3 min and consecutive removal of the medium. Each well was carefully washed with 250 μL of ice-cold HBSS. Both fractions from the first steps, representing the amount of free radioligand, were combined. Removal of surface bound activity was accomplished by incubation of the cells with 250 μL of ice-cold PMPA (10 μM in PBS) solution for 5 min and rinsed again with another 250 μL of ice-cold PBS. The internalized activity was determined by incubation of the cells in 250 μL […] aqueous NaOH for at least 10 min. The obtained fractions were combined with those of the subsequent wash step with 250 μL 1 M aqueous NaOH. Each experiment (control and blockade) was performed in triplicate. Free, surface bound and internalized activity was quantified in a y-counter. All internalization studies were accompanied by external reference studies, using ([^125I]I-BA)KuE (c=0.2 nM), which were performed analogously. Data were corrected for non-specific binding and normalized to the specific-internalization observed for the radioiodinated reference compound.

[3] = Octanol-water partition coefficient (log D7.4); assay type: physicochemical; conditions: PBS pH 7.4 / n-octanol, 177Lu-labelled
Protocol: Octanol-Water Partition Coefficient (log D7.4)
Approximately 1 MBq of the labelled tracer was dissolved in 1 mL of a 1:1 mixture (v/v) of PBS (pH 7.4) and n-octanol in a reaction vial (1.5 mL). After vigorous mixing of the suspension for 3 minutes at room temperature, the vial was centrifuged at 15000 g for 3 minutes (Biofuge 15, Heraus Sepatech, Osterode, Germany) and 100 μL aliquots of both layers were measured in a gamma counter. The experiment was repeated at least six times.

[4] = test system: LNCaP tumor-bearing male CB-17 SCID mice; assay: Biodistribution studies 24 h p.i.; conditions: for Kidneys (24 h) / Tumor (24 h) / T/K-ratio: Table 1; for T/K-ratio: tumor/kidney; for In vivo biodistribution (24 h p.i.) blood / In vivo biodistribution (24 h p.i.) kidney / In vivo biodistribution (24 h p.i.) tumor: Table 6; for uptake in adrenals / uptake in blood / uptake in bone / uptake in heart / uptake in intestine / uptake in kidney / uptake in liver / uptake in lung / uptake in muscle / uptake in pancreas / uptake in parotid gl. / uptake in spleen / uptake in stomach / uptake in submand. gl. / uptake in tumor: mean
Protocol: Approximately 3-7 MBq (0.1-0.2 nmol) of the radioactive-labelled PSMA inhibitors were injected into the tail vein of LNCaP tumor-bearing male CB-17 SCID mice and sacrificed after 24 h post injection. Selected organs were removed, weighted and measured in a γ-counter. Results are all decay corrected and given in % injected dose per gram of tissue (% iD/g). Tumor-to-organ ratios are calculated from animals' individual ratios and are given as mean±standard deviation.

[5] = Apparent molecular weight (MWapp)
[6] = molecular target: T2, PSMA (Homo sapiens, UniProt Q04609); assay: PSMA affinity (IC50), competition with [125I]I-BA-KuE on LNCaP cells; assay type: binding; conditions: natLu complex, on ice 60 min
T2 construct: PSMA-positive LNCAP cells (300265; Cell Lines Service, Eppelheim, Germany); host or cells: LNCaP cells
T2 sequence (Q04609 whole entry): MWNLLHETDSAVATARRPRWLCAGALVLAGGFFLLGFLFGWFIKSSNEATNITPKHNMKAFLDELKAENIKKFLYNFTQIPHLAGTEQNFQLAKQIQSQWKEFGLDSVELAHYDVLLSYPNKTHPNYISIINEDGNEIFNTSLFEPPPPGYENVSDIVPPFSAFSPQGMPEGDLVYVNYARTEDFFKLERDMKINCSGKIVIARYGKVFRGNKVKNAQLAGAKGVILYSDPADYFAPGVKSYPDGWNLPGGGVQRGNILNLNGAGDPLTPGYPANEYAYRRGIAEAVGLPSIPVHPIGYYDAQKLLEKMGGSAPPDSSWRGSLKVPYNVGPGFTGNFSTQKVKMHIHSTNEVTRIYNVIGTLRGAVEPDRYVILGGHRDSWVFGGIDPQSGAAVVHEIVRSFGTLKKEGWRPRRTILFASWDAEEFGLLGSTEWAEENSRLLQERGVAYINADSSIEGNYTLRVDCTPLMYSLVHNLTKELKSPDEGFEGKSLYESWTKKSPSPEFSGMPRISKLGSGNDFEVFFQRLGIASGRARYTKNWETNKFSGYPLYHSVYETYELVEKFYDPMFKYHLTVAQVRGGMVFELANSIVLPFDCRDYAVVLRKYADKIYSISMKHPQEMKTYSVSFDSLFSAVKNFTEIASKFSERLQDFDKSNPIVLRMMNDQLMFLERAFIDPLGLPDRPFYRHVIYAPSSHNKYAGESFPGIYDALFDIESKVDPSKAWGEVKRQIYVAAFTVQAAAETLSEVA
Protocol: A mixture of trypsin and EDTA (0.05%, 0.02%) in PBS (Biochrom) was used in order to harvest cells. Cells were counted with a Neubauer hemocytometer (Paul Marienfeld, Lauda-Königshofen, Germany).
Affinity Determinations (IC50)
In the case of metal-complexed ligands, the crude reaction mixture was diluted analogously, without further purification. Cells were harvested 24±2 hours prior to the experiment and seeded in 24-well plates (1.5×10^5 cells in 1 mL/well). […] The media of both steps were combined in one fraction and represent the amount of free radioligand. Afterwards, the cells were lysed with 250 μL of 1 M aqueous NaOH for at least 10 min. After a washing step (250 μL of 1 M NaOH), both fractions, representing the amount of bound ligand, were united. Quantification of all collected fractions was accomplished in a γ-counter. PSMA-affinity determinations were carried out at least three times per ligand.

T1 sequence (P02768 25-609): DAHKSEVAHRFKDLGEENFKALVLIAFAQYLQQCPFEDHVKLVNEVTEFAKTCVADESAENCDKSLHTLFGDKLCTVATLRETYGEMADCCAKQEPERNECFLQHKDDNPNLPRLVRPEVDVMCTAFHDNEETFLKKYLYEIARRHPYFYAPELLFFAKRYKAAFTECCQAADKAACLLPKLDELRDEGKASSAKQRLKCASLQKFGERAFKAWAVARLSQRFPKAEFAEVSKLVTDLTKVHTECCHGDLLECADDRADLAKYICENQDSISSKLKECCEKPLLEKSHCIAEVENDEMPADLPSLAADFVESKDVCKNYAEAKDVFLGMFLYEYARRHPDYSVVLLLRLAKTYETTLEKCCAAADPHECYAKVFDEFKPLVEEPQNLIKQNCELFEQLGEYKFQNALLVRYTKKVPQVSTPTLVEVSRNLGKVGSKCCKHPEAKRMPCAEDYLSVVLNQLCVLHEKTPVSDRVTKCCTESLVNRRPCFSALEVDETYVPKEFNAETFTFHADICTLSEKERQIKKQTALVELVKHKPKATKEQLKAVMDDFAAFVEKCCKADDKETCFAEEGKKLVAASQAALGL

With O=C(O)CC[C@H](NC(=O)N[C@@H](CCCCNC(=O)[C@H](Cc1ccc2ccccc2c1)NC(=O)[C@H]1CC[C@H](CNC(=O)CN2CCN(CC(=O)O)CCN(CC(=O)O)CCN(CC(=O)O)CC2)CC1)C(=O)O)C(=O)O [PSMA-617, reference compound] the “HSA (HPAC)” value [1] was 84.9%, the Internalization ([2]; normalized to ([125I]I-BA)KuE) was 203 ± 10 % IBA-KuE and the logD7.4 [3] was −4.10. The “Kidneys (24 h)” value [4] was 9.8 ± 2.7 % iD/g, the “Tumor (24 h)” value [4] was 11.6 ± 2.2 % iD/g and the T/K-ratio [4] was 1.24 ± 0.29. The MWapp [5] was 13.7 kDa and the IC50 ([6]; read-out: IC50) was 3.3 ± 0.2 nM.

In the case of CC(C)(C)[Si](F)(c1ccc(C(=O)NC[C@@H](NC(=O)[C@@H](CCCNC(N)=O)NC(=O)CC[C@@H](C(=O)O)N2CCN(CC(=O)O)CCN(CC(=O)O)CCN(CC(=O)O)CC2)C(=O)NCCCCCC(=O)NCCC[C@@H](NC(=O)CC[C@H](NC(=O)N[C@@H](CCC(=O)O)C(=O)O)C(=O)O)C(=O)O)cc1)C(C)(C)C [Compound 2C014], the “HSA (HPAC)” value [1] is reported as 94.6%, the Internalization ([2]; normalized to reference) is reported as 235 ± 20 % IBA and the logD7.4 [3] is reported as −3.37 ± 0.10. For the same molecule, the “In vivo biodistribution (24 h p.i.) blood” value [4] was 0.0014 ± 0.0006 % iA/g, the “In vivo biodistribution (24 h p.i.) kidney” value [4] was 2.77 ± 0.84 % iA/g and the “In vivo biodistribution (24 h p.i.) tumor” value [4] was 16.54 ± 3.37 % iA/g. For the same molecule, the uptake in adrenals [4] was 0.1473 % iD/g, the uptake in blood [4] was 0.0014 % iD/g and the uptake in bone [4] was 0.0327 % iD/g. It also gave an uptake in heart [4] of 0.0245 % iD/g, an uptake in intestine [4] of 0.1006 % iD/g and an uptake in kidney [4] of 2.7708 % iD/g. It also gave an uptake in liver [4] of 0.2376 % iD/g, an uptake in lung [4] of 0.0654 % iD/g and an uptake in muscle [4] of 0.0107 % iD/g. For the same molecule, the uptake in pancreas [4] was 0.0192 % iD/g, the “uptake in parotid gl.” value [4] was 0.09 % iD/g and the uptake in spleen [4] was 0.4296 % iD/g. For the same molecule, the uptake in stomach [4] was 0.0367 % iD/g, the “uptake in submand. gl.” value [4] was 0.0555 % iD/g and the uptake in tumor [4] was 16.5415 % iD/g. For the same molecule, the MWapp [5] was 19.2 kDa and the IC50 ([6]; read-out: IC50) was 3.95 ± 1.36 nM.

For CC(C)(C)[Si](F)(c1ccc(C(=O)NCC(NC(=O)CCC(C(=O)O)N2CCN(CC(=O)O)CCN(CC(=O)O)CCN(CC(=O)O)CC2)C(=O)NC(CN)C(=O)NCCC(=O)NCCC(=O)NCCCC(NC(=O)CCC(NC(=O)NC(CCC(=O)O)C(=O)O)C(=O)O)C(=O)O)cc1)C(C)(C)C (stereo not drawn) [Compound 2C011], the “HSA (HPAC)” value [1] was 89.8%, the Internalization ([2]; normalized to reference) was 163.2 ± 6.91 % IBA and the logD7.4 [3] was −2.88 ± 0.06. For the same molecule, the “In vivo biodistribution (24 h p.i.) blood” value [4] was 0.0042 ± 0.0019 % iA/g, the “In vivo biodistribution (24 h p.i.) kidney” value [4] was 2.1 ± 0.49 % iA/g and the “In vivo biodistribution (24 h p.i.) tumor” value [4] was 11.86 ± 0.75 % iA/g. It also gave an uptake in adrenals [4] of 0.1488 % iD/g, an uptake in blood [4] of 0.0042 % iD/g and an uptake in bone [4] of 0.0363 % iD/g. For the same molecule, the uptake in heart [4] was 0.0254 % iD/g, the uptake in intestine [4] was 0.2229 % iD/g and the uptake in kidney [4] was 2.0983 % iD/g. It also gave an uptake in liver [4] of 0.2848 % iD/g, an uptake in lung [4] of 0.0469 % iD/g and an uptake in muscle [4] of 0.0067 % iD/g. The uptake in pancreas [4] was 0.0264 % iD/g, the “uptake in parotid gl.” value [4] was 0.0857 % iD/g and the uptake in spleen [4] was 0.3218 % iD/g. For the same molecule, the uptake in stomach [4] was 0.0829 % iD/g, the “uptake in submand. gl.” value [4] was 0.052 % iD/g and the uptake in tumor [4] was 11.8594 % iD/g. For the same molecule, the MWapp [5] was 18.9 kDa and the IC50 [6] was 6.08 ± 0.16 nM.

In the case of CC(C)(C)[Si](F)(c1ccc(C(=O)NC[C@@H](NC(=O)CC[C@@H](C(=O)O)N2CCN(CC(=O)O)CCN(CC(=O)O)CCN(CC(=O)O)CC2)C(=O)N[C@H](CCCCNC(=O)CCC(=O)NCCC[C@@H](NC(=O)CC[C@H](NC(=O)N[C@@H](CCC(=O)O)C(=O)O)C(=O)O)C(=O)O)C(=O)O)cc1)C(C)(C)C [rhPSMA-7.3, reference compound], the “HSA (HPAC)” value [1] is reported as 98.6%, the Internalization ([2]; normalized to ([125I]I-BA)KuE) is reported as 184 ± 12 % IBA-KuE and the logD7.4 [3] is reported as −4.12 ± 0.11^. For the same molecule, the “Kidneys (24 h)” value [4] was 1.4 ± 0.4 % iD/g, the “Tumor (24 h)” value [4] was 7.5 ± 0.9 % iD/g and the T/K-ratio [4] was 5.17. For the same molecule, the MWapp [5] was 30.4 kDa and the IC50 ([6]; read-out: IC50) was 3.29 ± 1 nM.

Molecule PSMA-617 [reference compound] has an uptake in adrenals [4] of 0.1910 % iD/g, an uptake in blood [4] of 0.0056 % iD/g and an uptake in bone [4] of 0.0267 % iD/g. It also gave an uptake in heart [4] of 0.0119 % iD/g, an uptake in intestine [4] of 0.1185 % iD/g and an uptake in kidney [4] of 1.4421 % iD/g. It also gave an uptake in liver [4] of 0.1167 % iD/g, an uptake in lung [4] of 0.0393 % iD/g and an uptake in muscle [4] of 0.0092 % iD/g. It also gave an uptake in pancreas [4] of 0.0106 % iD/g, an uptake in spleen [4] of 0.0812 % iD/g and an uptake in stomach [4] of 0.0201 % iD/g. For the same molecule, the uptake in tumor [4] was 7.4568 % iD/g, the tumor-to-organ ratio adrenals ([4]; n = 4, mean) was 43.54 and the tumor-to-organ ratio blood ([4]; n = 4, mean) was 1423.84. For the same molecule, the tumor-to-organ ratio bone ([4]; n = 4, mean) was 471.67, the tumor-to-organ ratio heart ([4]; n = 4, mean) was 704.01 and the tumor-to-organ ratio intestine ([4]; n = 4, mean) was 90.33. The tumor-to-organ ratio kidney ([4]; n = 4, mean) was 5.85, the tumor-to-organ ratio liver ([4]; n = 4, mean) was 91.22 and the tumor-to-organ ratio lung ([4]; n = 4, mean) was 210.40. It also gave a tumor-to-organ ratio muscle ([4]; n = 4, mean) of 855.38, a tumor-to-organ ratio pancreas ([4]; n = 4, mean) of 798.52 and a tumor-to-organ ratio spleen ([4]; n = 4, mean) of 93.28. For the same molecule, the tumor-to-organ ratio stomach ([4]; n = 4, mean) was 375.80.

Source: patent US20240165281A1, “DUAL MODE RADIOTRACER AND THERAPEUTICS” (Technische Universität München, priority 2021, published 2024)
